# Test results published in patent US12522582B2 (Gilead Sciences, Inc., priority 2022, dated 2026).
# Legend:
# HSV-2 virus (MS strain) [1] = assay: HSV qPCR Assay (HSV replication in ARPE-19 cells)
# HSV-2 virus (MS strain) [2] = assay: HSV-2 Cellomics Assay (immunofluorescence of HSV protein gD in infected ARPE-19 cells)
# [3] = system: human cryopreserved hepatocytes; assay: Stability Assay in Cryopreserved Hepatocytes (human); format: in vitro ADME; settings: 1 μM, calculated from half-life using the well-stirred model
# Experimental: Test compound was incubated at 1 μM with either rat or human cryopreserved hepatocytes (BioIVT, Westbury, NY) up to 6 hours at 37° C. in a 24-well plate format (1×10^6 cells/mL per well). At specified time points, samples were transferred to a 96-well plate and quenched with 2 volumes of a solution containing 90% acetonitrile 10% methanol 0.1% formic acid and internal standard. Sample plate was centrifuged at 3200 rpm for 15 min and supernatants transferred to a new plate containing half volume of water. The resulting solution was analyzed by LC-MS/MS. Data (analyte to internal standard peak area ratio) was plotted on a semi-log scale and fitted using an exponential fit. Assuming first order kinetics, the half-life (t1/2) and rate of metabolism were determined. Predicted hepatic clearance was calculated from the half-life using the well-stirred model.
# [4] = MT-4 CC50 Assay (CellTiter Glo); format: cell-based; settings: human, MT-4 cells, luminescence, read-out: CC50-MT4
# Experimental: Compounds were tested in 384-well plates: 18 compounds in duplex. Compounds were diluted in 7 points, 3-fold with DMSO by Bravo. Assay plate, which contains 20 uL medium with compounds, was seeded 2000 MT-4 cells in 20 uL/well by Multi-drop to start the assay. The plate was incubated at 37° C. for 5 days. On 6th day, the CellTiter Glo 40 uL was added in each well. Luminescence was read by Victor II.
# [5] = Human alphaherpesvirus 2, ARPE-19, read-out: EC50-HSV2-qPCR
# [6] = Human alphaherpesvirus 2, ARPE-19, 16 h, read-out: EC50-HSV2-10% Human Serum
# [7] = Human alphaherpesvirus 2, ARPE-19, 16 h, read-out: EC50-HSV2-FBS
# [8] = Human alphaherpesvirus 2, ARPE-19, read-out: EC50 in HSV qPCR assay
Compound,EC50 (HSV-2 virus (MS strain) [1]; [5]),EC50 (HSV-2 virus (MS strain) [2]; [6]),EC50 (HSV-2 virus (MS strain) [2]; [7]),EC50 (HSV-2 virus (MS strain) [1]; [8]),Predicted human hepatic clearance [3],CC50 at 5 days [4],"EC50 (HSV-2 virus (MS strain) [2]; Human alphaherpesvirus 2, ARPE-19, read-out: EC50 in HSV-2 Cellomics assay)"
CC1Cc2ccc(S(N)(=O)=O)cc2N1C(=O)C1Cc2ccc(-c3ccccn3)cc2C1 (stereo not drawn) [Example 3],18.5 nM,≥ 25000 nM,129 nM,,,,
"Nc1nc2c(ncn2COCCO)c(=O)[nH]1 [acyclovir, reference compound]",,,,1250 nM,,,
"C[C@H]1Cc2cc(F)c(S(N)(=O)=O)cc2N1C(=O)[C@H]1Cc2ccc(-c3ccccn3)cc2C1 [Example 140, (S)-5-fluoro-2-methyl-1-((S)-5-(pyridin-2-yl)-2,3-dihydro-1H-indene-2-carbonyl)indoline-6-sulfonamide]",,≥ 10000 nM,≥ 10000 nM,,6 mL/min/kg,,
"C[C@H]1Cc2ccc(S(N)(=O)=O)cc2N1C(=O)[C@@H]1Cc2ccc(-c3ccccn3)cc2C1 (single isomer, unassigned) [Example 16]",,,775 nM,,2 mL/min/kg,,
"CC1CN(C(=O)C2Cc3ccc(-c4ccccn4)cc3C2)c2cc(S(N)(=O)=O)ccc21 (stereo not drawn) [Example 106, 3-Methyl-1-[5-(2-pyridyl)indane-2-carbonyl]indoline-6-sulfonamide]",10.9 nM,,81 nM,,,,
"C[C@@H]1Cc2cc(Cl)c(S(N)(=O)=O)cc2N1C(=O)[C@@H]1Cc2ccc(-c3ccccn3)cc2C1 [Example 60, (R)-5-chloro-2-methyl-1-((R)-5-(pyridin-2-yl)-2,3-dihydro-1H-indene-2-carbonyl)indoline-6-sulfonamide]",,434 nM,13 nM,,2.83 mL/min/kg,≥ 10000 nM,
"C[C@@H]1Cc2cc(F)c(S(N)(=O)=O)cc2N1C(=O)[C@@H]1Cc2ccc(-c3cc(F)ccc3F)cc2C1 [Example 61, (R)-1-((R)-5-(2,5-difluorophenyl)-2,3-dihydro-1H-indene-2-carbonyl)-5-fluoro-2-methylindoline-6-sulfonamide]",,169 nM,28 nM,,2.5 mL/min/kg,≥ 10000 nM,
"Cc1nc(N(C)C(=O)Cc2ccc(-c3ccccn3)cc2)sc1S(N)(=O)=O [pritelivir, reference compound]",,,,14 nM,,,150 nM
"NS(=O)(=O)c1ccc2c(c1)N(C(=O)C1Cc3ccc(-c4ccccc4F)cc3C1)CC2 (stereo not drawn) [Example 70, 1-(5-(2-fluorophenyl)-2,3-dihydro-1H-indene-2-carbonyl) indoline-6-sulfonamide]",25.8 nM,≥ 25000 nM,91 nM,,,,
"NS(=O)(=O)c1ccc2c(c1)N(C(=O)[C@@H]1Cc3ccc(-c4ccncn4)cc3C1)CC2 [Example 129, (R)-1-(5-(pyrimidin-4-yl)-2,3-dihydro-1H-indene-2-carbonyl)indoline-6-sulfonamide]",,7610 nM,231 nM,,17.5 mL/min/kg,,
"NS(=O)(=O)c1cc2c(cc1F)CCN2C(=O)[C@@H]1Cc2ccc(-c3cc(F)ccc3F)cc2C1 [Example 58, (R)-1-(5-(2,5-difluorophenyl)-2,3-dihydro-1H-indene-2-carbonyl)-5-fluoroindoline-6-sulfonamide]",,4310 nM,12 nM,,5.33 mL/min/kg,≥ 10000 nM,
NS(=O)(=O)c1cc2c(cc1F)CCN2C(=O)[C@@H]1Cc2ccc(-c3ccccn3)cc2C1 [Example 28],,8440 nM,6 nM,,3.67 mL/min/kg,≥ 50000 nM,
"NS(=O)(=O)c1ccc2c(c1)N(C(=O)[C@@H]1Cc3ccc(-c4ncccc4F)cc3C1)CC2 [Example 89, (R)-1-(5-(3-fluoropyridin-2-yl)-2,3-dihydro-1H-indene-2-carbonyl)indoline-6-sulfonamide]",,1960 nM,23 nM,,0.83 mL/min/kg,308 nM,
"C[C@H]1CN(C(=O)[C@H]2Cc3cc(-c4ccccn4)ccc3[C@@H]2C)c2cc(S(N)(=O)=O)c(F)cc21 [Example 104, (R)-5-fluoro-3-methyl-1-((1R,2S)-1-methyl-5-(pyridin-2-yl)-2,3-dihydro-1H-indene-2-carbonyl)indoline-6-sulfonamide]",,64.4 nM,20 nM,,,≥ 10000 nM,
